Results on eleven molecules are retold here after US11072606B2, “Compositions and methods for treating diseases and conditions” (University of Pittsburgh—Of the Commonwealth System of …, priority 2014, dated 2021).

For data set [1], the system named is LPS induced lung inflammation. Description: LPS induced lung inflammation in mice (FIG. 5). In kind it is in vivo. The note with it: compound P.O., LPS 3 mg/kg i.t., 18 h, lavage protein, cell counts, cytokine secretion, *P<0.05 versus Vehicle. As for the experimental part:
BC-1421 was administered to mice though P.O., and mice were then immediately challenged with LPS (3 mg/kg, i.t.) for an additional 18 h. Mice were then euthanized and lungs were lavaged with saline, harvested, and then homogenized. Lavage protein, cell counts and cytokine secretion were measured in. The data represent n=4-5 mice/group, *P<0.05 versus Vehicle.

A further data set deals with TNFα cytokine release. Kind of data set: LPS-induced TNFα cytokine release in PBMC (ELISA). In kind it is cell-based. The note with it: LPS 50 ng/ml for 16 hours concurrently with compound, TNFα by ELISA. As for the experimental part:
Peripheral blood mononuclear cells (PBMC) (0.2 ml at 0.3×10^6/ml) were treated with lipopolysaccharide (LPS) (50 ng/ml) for 16 hours concurrently with each compound tested at different concentrations. TNFα cytokine release was monitored by ELISA. These concentrations were used to calculate the IC50.

A short description of data set [2]: U937 monocyte cell death, Trypan blue staining. Type of data set: cell-based. The following applies: human; U937 monocytes, compound for 16 hours, Trypan blue dead cells; read-out: LC50. The procedure:
U937 monocytes (0.2 ml at 0.3×10^6/ml) were treated with each compound at different concentrations for 16 hours. The cells were then stained with Trypan blue to identify dead cells, and to calculate the LC50. Combined values were used to generate therapeutic indexes (TI)=LC50/IC50.

Values after ≈ are worked out from the molar mass of the structure shown.

For the molecule `Fc1cc(CNCCNCc2ccc(-c3ncccn3)c(F)c2)ccc1-c1ncccn1` [BC-1421, N^1,N^2-bis(3-fluoro-4-(pyrimidin-2-yl)benzyl)ethane-1,2-diamine], the “LPS induced lung inflammation” value in data set [1] is reported as “reduces LPS induced lung inflammation”.

Regarding `c1ncc(-c2ccc(CNCCNCc3ccc(-c4cncnc4)cc3)cc2)cn1` [Compound 201], the IC50 (commonly the point on the concentration scale where inhibition reaches its midpoint) with TNFα cytokine release is < 2 µg/mL. For the same molecule, in data set [2], the CC50 at 16 h is > 100 µg/mL. The like results for `c1nnc(-c2ccc(CNCCNCc3ccc(-c4nnco4)cc3)cc2)o1` [Compound 202] were, in that order, < 2 µg/mL and > 100 µg/mL. The like results for `c1ncn(-c2ccc(CNCCNCc3ccc(-n4cncn4)cc3)cc2)n1` [Compound 203] were, in that order, 2 to 20 µg/mL (≈ 5.34 to 53.4 µM) and > 100 µg/mL. For the molecule `C[C@@H](CNCc1ccc(-c2ncccn2)cc1)NCc1ccc(-c2ncccn2)cc1` [Compound 204], in the data set with TNFα cytokine release, the concentration for half-maximal inhibition (IC50) is < 2 µg/mL. Further, in data set [2], the CC50 at 16 h is > 100 µg/mL. With `C[C@H](CNCc1ccc(-c2ncccn2)cc1)NCc1ccc(-c2ncccn2)cc1` [Compound 205], in the data set on TNFα cytokine release, the IC50 is < 2 µg/mL. The CC50 at 16 h in data set [2] is > 100 µg/mL.

For the molecule `CC(C)(CNCc1ccc(-c2ncccn2)cc1)NCc1ccc(-c2ncccn2)cc1` [Compound 206], the IC50 with TNFα cytokine release was < 2 µg/mL. For the same molecule, the CC50 at 16 h in data set [2] is > 100 µg/mL.

Take `CC(C)(NCc1ccc(-c2ncccn2)cc1)C(C)(C)NCc1ccc(-c2ncccn2)cc1` [Compound 207]: the IC50 with TNFα cytokine release lay in the range of 2 to 20 µg/mL (≈ 4.42 to 44.2 µM). In addition, the CC50 at 16 h in data set [2] was > 100 µg/mL. The like results for `c1ccc(-c2ncc(CNCCNCc3cnc(-c4ccccc4)nc3)cn2)cc1` [Compound 208] were, in that order, 2 to 20 µg/mL (≈ 5.04 to 50.4 µM) and 10 to 100 µg/mL (≈ 25.2 to 252 µM). Turning to `c1ccc(-c2ncc(CNCCNCc3cnc(-c4ccccn4)nc3)cn2)nc1` [Compound 209], in the data set with TNFα cytokine release, the concentration for half-maximal inhibition (IC50) fell in the range of 2 to 20 µg/mL (≈ 5.02 to 50.2 µM). Also, the CC50 at 16 h in data set [2] fell in the range of 10 to 100 µg/mL (≈ 25.1 to 251 µM). For the molecule `c1nc(N2CCCC2)ncc1CNCCCCNCc1cnc(N2CCCC2)nc1` [Compound 210], the IC50 in the data set with TNFα cytokine release is < 2 µg/mL. The CC50 at 16 h in data set [2] was 1 to 10 µg/mL (≈ 2.44 to 24.4 µM).
